Test results as given in US8492105B2, “Screening method for an insulin resistance improving agent or a therapeutic agent for diabetes” (Fujitsu Limited, priority 2009, dated 2013).

Tests used:
[1] = target: T1, phosphorylation of Ser727 of STAT3 by ERK2 (Homo sapiens, UniProt P28482); test: Phosphorylation inhibitory activity test by western blotting (anti-pS727 STAT); type: biochemical; conditions: 1 mM 5-iodotubercidin (final 1.14 mM), 22% DMSO (Sample 3); 30° C. 130 min; vs control Sample 1
T1 construct: purchased Biosource Inc. (Active ERK); Abcam Inc. (STAT3)
T1 sequence (P28482 whole entry): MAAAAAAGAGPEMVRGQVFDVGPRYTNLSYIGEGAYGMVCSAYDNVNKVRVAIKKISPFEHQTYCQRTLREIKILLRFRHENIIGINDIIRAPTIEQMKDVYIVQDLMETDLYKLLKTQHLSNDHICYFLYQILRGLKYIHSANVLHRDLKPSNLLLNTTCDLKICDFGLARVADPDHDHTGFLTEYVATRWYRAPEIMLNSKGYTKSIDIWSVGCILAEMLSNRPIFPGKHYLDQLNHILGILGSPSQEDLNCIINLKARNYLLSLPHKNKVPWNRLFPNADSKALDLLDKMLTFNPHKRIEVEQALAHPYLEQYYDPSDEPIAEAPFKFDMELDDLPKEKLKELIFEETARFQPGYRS
Procedure: The following ingredients were used at a composition indicated in Table 1 to prepare a reaction liquid: 5× reaction buffer (250 mM tris-HCl (pH 7.5), 50 mM magnesium chloride, 0.1% by mass bovine serum albumin (BSA) and 5 mM dithiothreitol (DTT)), Active ERK solution (0.1 mg/mL) (product of Biosource Inc.), STAT3 solution (0.2 mg/mL) (product of Abcam Inc.) and distilled water.
Also, 5-iodotubercidin (product of Calbiochem Inc.) was used as a control compound.
The 5-iodotubercidin was suspended in DMSO so that the final concentration thereof was adjusted to 5 mM.
Furthermore, distilled water was added to the samples so as to appropriately adjust the volume thereof, whereby reaction mixtures were obtained.
Each of the reaction mixtures was incubated at 30° C. for 130 min to allow Active ERK2 to phosphorylate the Ser727 of the STAT3.
After that, to terminate the phosphorylation, 0.5M ethylenediamine tetraacetate (EDTA) was added in an amount of 2.75 μL to the reaction mixtures serving as a control (Table 2: Sample 1 or 2), and was added in an amount of 5.5 μL to the reaction mixture containing the 5-iodotubercidin (Table 2: Sample 3) or the reaction mixture containing the peptide (Table 2: Sample 4). […]

[2] = tested on: db/db mice; test: Efficacy test, 28-day daily intraperitoneal injection (blood glucose, insulin, HOMA-IR); type: in vivo, mouse
Procedure: Fifty mice described in Test Example 2 were used as a test animal.
Specifically, 3.8 mg of the above peptide was dissolved in 4.75 mL of physiological saline to prepare a 0.8 mg/mL peptide solution (hereinafter may be referred to as “peptide solution 2”). Then, 1.75 mL of the peptide solution 2 was dissolved in 3.5 mL of physiological saline to prepare a 0.27 mg/mL peptide solution (hereinafter may be referred to as “peptide solution 3”). Further, 1 mL of the peptide solution 3 was dissolved in 2 mL of physiological saline to prepare a 0.09 mg/mL peptide solution (hereinafter may be referred to as “peptide solution 4”).
A metformin solution used for an activity control group was prepared as follows. Specifically, 120 mg of metformin (product of Sigma Co.) was dissolved in 4 mL of physiological saline to prepare a 30 mg/mL metformin solution.
The efficacy test was conducted using the following five administration groups: a solvent (physiological saline) control administration group, a 150 mg/kg metformin administration group (serving as an activity control group), a 4.00 mg/kg peptide (expressed by SEQ ID No. 1) administration group, a 1.33 mg/kg peptide administration group and a 0.44 mg/kg peptide administration group. Each administration group had 10 mice.
The above-prepared solutions were intraperitoneally injected every day to all of the mice of the test groups at the corresponding doses given in the following Table 4 for 28 days. The body weight, the fasting blood glucose level, the postprandial blood glucose level and the fasting blood insulin level were measured by the below-described measuring method according to the measurement schedule given in the following Table 5.
The calculating method for the HOMA-IR value is described below.
To measure the fasting blood glucose level and blood insulin level, 50 μL of blood was sampled from the postorbital region on Day 0, Day 14 and Day 28 after administration. The serum was obtained in the same manner as in Test Example 2.
The postprandial blood glucose level was measured using blood sampled from the tail vein on Day 1, Day 13, and Day 27 after administration.
The blood glucose level and blood insulin level were measured in the same manner as in Test Example 2.
The insulin resistance was determined by the HOMA (homeostasis model assessment) method using the following calculation formula. HOMA-IR (index of insulin resistance)=fasting insulin level (μU/mL)×fasting blood glucose level (mmol/L)/22.5
All of the values are indicated as “average value±average error.” The important differences between the groups and within each group were evaluated through one-way variance analysis and Dunnett's multiple comparison. The p-values equal to or lower than 0.05 were regarded as statistically significant.

[3] = Metformin 150 mg/kg group, Day 0
[4] = Metformin 150 mg/kg intraperitoneal every day, Day 28
[5] = Metformin 150 mg/kg intraperitoneal every day, Day 28 minus Day 0

| Compound | band of STAT3 whose Ser727 has been phosphorylated (western blotting) [1] | Fasting blood insulin level [2, 3] [ng/mL] | HOMA-IR value [2, 3] | Fasting blood glucose level ([2]; Metformin 150 mg/kg group, Day 0, average ± average error, 10 mice) [mM] | Postprandial blood glucose level ([2]; Metformin 150 mg/kg group, Day 1, average ± average error, 10 mice) [mM] | Postprandial blood glucose level ([2]; Metformin 150 mg/kg intraperitoneal every day, Day 13) [mM] | Fasting blood glucose level ([2]; Metformin 150 mg/kg intraperitoneal every day, Day 14) [mM] | Postprandial blood glucose level ([2]; Metformin 150 mg/kg intraperitoneal every day, Day 27) [mM] | Fasting blood glucose level [2, 4] [mM] | Fasting blood insulin level [2, 4] [ng/mL] | HOMA-IR value ([2]; Metformin 150 mg/kg intraperitoneal every day, Day 28, # p < 0.05 vs. solvent control group) | Increment in fasting blood glucose level [2, 5] [mM] | Increment in fasting blood insulin level [2, 5] [ng/mL] | Increment in fasting blood glucose level ([2]; Metformin 150 mg/kg intraperitoneal every day, Day 28 minus Day 0, listed as metformin) [mM] | Increment in postprandial blood glucose level ([2]; Metformin 150 mg/kg intraperitoneal every day, Day 28 minus Day 0 as printed, # p < 0.05 vs. solvent control group) | suppression of increase in fasting blood glucose level (significance) ([2]; Metformin 150 mg/kg, Day 0 to Day 28, vs solvent control group) | HOMA-IR value (index of insulin resistance), change ([2]; Metformin 150 mg/kg, Day 28) |
| --- | --- | --- | --- | --- | --- | --- | --- | --- | --- | --- | --- | --- | --- | --- | --- | --- | --- |
| 5-iodotubercidin | lower in intensity than the band detected in the control | – | – | – | – | – | – | – | – | – | – | – | – | – | – | – | – |
| CN(C)C(=N)N=C(N)N [Metformin, metformin] | – | 8.81 ± 1.33 | 139.4 ± 22.7 | 16.3 ± 1.3 | 22.5 ± 2.0 | 25.2 ± 2.0 | 19.3 ± 1.5 | 28.1 ± 1.6 | 22.0 ± 3.1 | 4.06 ± 0.84 | 79.6 ± 17.7^# | 5.8 ± 2.4 | -4.94 ± 1.77 | 5.8 ± 2.4 | 4.3 ± 2.2^# mM | not statistically significant | significantly decreased |
